Assay results published in patent publication US7973147B2, “K04-0144 substance and a process for production thereof” (The Kitasato Institute, priority 2006, dated 2011).
≈ marks a conversion by molar mass, not a printed value. Entries after “also recorded” stand apart in the source; their conditions may differ.

Assays:
Solubility in solvent = assay type: physicochemical; conditions: listed as K04-0144A substance
MRSA 92-1191 = assay: MIC, agar plate dilution method; assay type: cell-based, methicillin-resistant Staphylococcus aureus; conditions: Staphylococcus aureus; MRSA 92-1191; 37° C., 20 hours; read-out: MIC
Protocol: (§1) Assay of minimum inhibitory concentration (MIC) was performed according to the agar plate dilution method (Method of Japan Society of Chemotherapy, CHEMOTHERAPY 29, 76-79, 1981).
(§2) Test organisms used were 27 types of microorganisms including clinical isolates of methicillin-resistant Staphylococcus aureus. Each test organism was cultured in Mueller-Hinton broth (2.1% w/v) (DIFCO) at 37° C. for 20 hours, and the cultured cells were suspended to about 10^6 cell counts/ml in the same medium, then was used as the microbial suspension for inoculation. The prepared microbial suspension was smeared by using the microplanter on MHA medium (Mueller-Hinton broth 2.1% (w/v) and agar 1.5%) containing K04-0144A substance, K04-0144B substance or K04-0144C substance, each of which was subjected to two-fold stepwise dilution from 128 μg/ml. After culturing at 37° C. for 20 hours, MIC was determined by macroscopically confirming the growth of microorganisms. Vancomycin, arbekacin and linezolid were used as a comparative control.

MRSA N315 IR94 HR-1 = assay: MIC, agar plate dilution method; assay type: cell-based, methicillin-resistant Staphylococcus aureus; conditions: Staphylococcus aureus, 20 h
Protocol: as §1, §2

MRSA 70 = assay: MIC, agar plate dilution method; assay type: cell-based, methicillin-resistant Staphylococcus aureus; conditions: Staphylococcus aureus; MRSA 70; 37° C., 20 hours; read-out: MIC
Protocol: as §1, §2

[1] = tested on: clinical isolate of MRSA (K24 strain); assay: MRSA infectious model using silkworms; assay type: in vivo, silkworm; conditions: 25 mg/kg into dorsal vessel; 72 hours after the inoculation; untreated infected silkworms all died within 72 hours
Protocol: As an alternative method for in vivo MRSA infection model using animals, the infection system using silkworms has been reported (Kaito et al, Microbial Pathogenesis, 32: 183-190, 2002). Effect of K04-0144A substance was measured according to this method.
Test organism used was the clinical isolate of MRSA (K24 strain). The MRSA was cultured statically using LB-10 medium (DIFCO) at 37° C. for 18 hours, and a 50 μl of the cultured strain was inoculated into the hemolymph of silkworm, 5 instar, 2nd day, (about 2 g, Ehime sansyu eggs Co., Japan). K04-0144A substance was prepared to a solution of 1 mg/ml, and 50 μl of the solution were administered by using syringe to the dorsal vessel of 5 silkworms infected with MRSA (25 mg/kg). Effect of the K04-0144A substance was evaluated by comparing the survival rate between a group with administering the sample and a group without administering the sample during the raising period of 72 hours after the inoculation. […] Further, all silkworms administered with 50 μl of MRSA bacterial suspension died within 72 hours after the inoculation.

silkworms = assay: Toxicity against silkworms (substance only, no infection); assay type: in vivo, silkworm; conditions: 25 mg/kg, uninfected silkworms, 72 hours
S. epidermidis IFO12648 = assay: MIC, agar plate dilution method; assay type: cell-based; conditions: Staphylococcus epidermidis; S. epidermidis IFO12648; 37° C., 20 hours; read-out: MIC
Protocol: as §1, §2

[2] = tested on: E. faecium NTCT12203(VanA); assay: MIC, agar plate dilution method; assay type: cell-based; conditions: Enterococcus faecium; E. faecium NTCT12203(VanA); 37° C., 20 hours; read-out: MIC
Protocol: as §1, §2

P. aeruginosa 46001 = assay: MIC, agar plate dilution method; assay type: cell-based; conditions: Pseudomonas aeruginosa; P. aeruginosa 46001; 37° C., 20 hours; read-out: MIC
Protocol: as §1, §2

E. cloacae IFO13535 = assay: MIC, agar plate dilution method; assay type: cell-based; conditions: Enterobacter cloacae; E. cloacae IFO13535; 37° C., 20 hours; read-out: MIC
Protocol: as §1, §2

S. marcescens IFO12648 = assay: MIC, agar plate dilution method; assay type: cell-based; conditions: Serratia marcescens; S. marcescens IFO12648; 37° C., 20 hours; read-out: MIC
Protocol: as §1, §2

S. aureus ISP217 = assay: MIC, agar plate dilution method; assay type: cell-based; conditions: Staphylococcus aureus; S. aureus ISP217; 37° C., 20 hours; read-out: MIC
Protocol: as §1, §2

C. freundii ATCC8090 = assay: MIC, agar plate dilution method; assay type: cell-based; conditions: Citrobacter freundii; C. freundii ATCC8090; 37° C., 20 hours; read-out: MIC
Protocol: as §1, §2

S. aureus ISP447 = assay: MIC, agar plate dilution method; assay type: cell-based; conditions: Staphylococcus aureus; S. aureus ISP447; 37° C., 20 hours; read-out: MIC
Protocol: as §1, §2

E. coli NIHJ JC-2 = assay: MIC, agar plate dilution method; assay type: cell-based; conditions: Escherichia coli, NIHJJC2; E. coli NIHJ JC-2; 37° C., 20 hours; read-out: MIC
Protocol: as §1, §2

E. aerogenes NCTC10006 = assay: MIC, agar plate dilution method; assay type: cell-based; conditions: Klebsiella aerogenes; E. aerogenes NCTC10006; 37° C., 20 hours; read-out: MIC
Protocol: as §1, §2

S. aureus Smith = assay: MIC, agar plate dilution method; assay type: cell-based; conditions: Staphylococcus aureus; S. aureus Smith; 37° C., 20 hours; read-out: MIC
Protocol: as §1, §2

E. faecalis ATCC21212 = assay: MIC, agar plate dilution method; assay type: cell-based; conditions: Enterococcus faecalis; E. faecalis ATCC21212; 37° C., 20 hours; read-out: MIC
Protocol: as §1, §2

[3] = tested on: E. facecalis NTCT12201(VanA); assay: MIC, agar plate dilution method; assay type: cell-based; conditions: E. facecalis NTCT12201(VanA); 37° C., 20 hours; read-out: MIC
Protocol: as §1, §2

K. pneumoniae NCTN9632 = assay: MIC, agar plate dilution method; assay type: cell-based; conditions: Klebsiella pneumoniae; K. pneumoniae NCTN9632; 37° C., 20 hours; read-out: MIC
Protocol: as §1, §2

S. aureus 8325(pMS97) = assay: MIC, agar plate dilution method; assay type: cell-based; conditions: Staphylococcus aureus, 20 h
Protocol: as §1, §2

P. aeruginosa E-2 = assay: MIC, agar plate dilution method; assay type: cell-based; conditions: Pseudomonas aeruginosa, E2; P. aeruginosa E-2; 37° C., 20 hours; read-out: MIC
Protocol: as §1, §2

S. aureus 8325(pEP2104) = assay: MIC, agar plate dilution method; assay type: cell-based; conditions: Staphylococcus aureus, 20 h
Protocol: as §1, §2

S. aureus FDA209P = assay: MIC, agar plate dilution method; assay type: cell-based; conditions: Staphylococcus aureus; S. aureus FDA209P; 37° C., 20 hours; read-out: MIC
Protocol: as §1, §2

P. vulgaris OX-19 = assay: MIC, agar plate dilution method; assay type: cell-based; conditions: Proteus vulgaris, OX19; P. vulgaris OX-19; 37° C., 20 hours; read-out: MIC
Protocol: as §1, §2

P. mirabilis IFO3849 = assay: MIC, agar plate dilution method; assay type: cell-based; conditions: Proteus mirabilis; P. mirabilis IFO3849; 37° C., 20 hours; read-out: MIC
Protocol: as §1, §2

M. morganii IID Kono = assay: MIC, agar plate dilution method; assay type: cell-based; conditions: Morganella morganii; M. morganii IID Kono; 37° C., 20 hours; read-out: MIC
Protocol: as §1, §2

M. luteus ATCC9341 = assay: MIC, agar plate dilution method; assay type: cell-based; conditions: Micrococcus luteus; M. luteus ATCC9341; 37° C., 20 hours; read-out: MIC
Protocol: as §1, §2

A. calcoaceticus IFO2552 = assay: MIC, agar plate dilution method; assay type: cell-based; conditions: Acinetobacter calcoaceticus; A. calcoaceticus IFO2552; 37° C., 20 hours; read-out: MIC
Protocol: as §1, §2

C=C(C/C=C(\C)CCC=C(C)C)CCC(C)(C)/C=C/CC/C(C)=C\COC(COP(=O)(O)OC1OC(C(N)=O)C(C)(O)C(OC(N)=O)C1OC1OC(COC2OC(CO)C(O)C(O)C2O)C(OC2OC(C)C(OC3OC(C(=O)O)C(O)C(O)C3O)C(O)C2NC(C)=O)C(O)C1NC(C)=O)C(=O)O (centres unmarked) [K04-0144A]
Solubility in solvent (Solubility in solvent): Soluble in methanol and water DMSO; also recorded: Insoluble in acetone, chloroform and hexane
MIC (MRSA 92-1191): 0.25 µg/mL (≈ 0.168 µM)
MIC (MRSA N315 IR94 HR-1): 0.125 µg/mL (≈ 0.084 µM)
MIC (MRSA 70): 0.06 µg/mL (≈ 0.0403 µM)
survival of silkworms infected with MRSA [1]: all survived after 72 hours of the inoculation
toxicity against silkworms (survival, substance only) (silkworms): no toxicity against silkworms
MIC (S. epidermidis IFO12648): 4 µg/mL (≈ 2.69 µM)
MIC [2]: > 16 µg/mL
MIC (P. aeruginosa 46001): > 16 µg/mL
MIC (E. cloacae IFO13535): > 16 µg/mL
MIC (S. marcescens IFO12648): > 16 µg/mL
MIC (S. aureus ISP217): 0.25 µg/mL (≈ 0.168 µM)
MIC (C. freundii ATCC8090): > 16 µg/mL
MIC (S. aureus ISP447): 0.25 µg/mL (≈ 0.168 µM)
MIC (E. coli NIHJ JC-2): > 16 µg/mL
MIC (E. aerogenes NCTC10006): > 16 µg/mL
MIC (S. aureus Smith): 1 µg/mL (≈ 0.672 µM)
MIC (E. faecalis ATCC21212): 1 µg/mL (≈ 0.672 µM)
MIC [3]: 1 µg/mL (≈ 0.672 µM)
MIC (K. pneumoniae NCTN9632): > 16 µg/mL
MIC (S. aureus 8325(pMS97)): 0.5 µg/mL (≈ 0.336 µM)
MIC (P. aeruginosa E-2): > 16 µg/mL
MIC (S. aureus 8325(pEP2104)): 0.06 µg/mL (≈ 0.0403 µM)
MIC (S. aureus FDA209P): 1 µg/mL (≈ 0.672 µM)
MIC (P. vulgaris OX-19): > 16 µg/mL
MIC (P. mirabilis IFO3849): > 16 µg/mL
MIC (M. morganii IID Kono): > 16 µg/mL
MIC (M. luteus ATCC9341): > 16 µg/mL
MIC (A. calcoaceticus IFO2552): 16 µg/mL (≈ 10.8 µM)
